# Data as given in patent US20180369203A1, “METHODS OF TREATING CANCER BY ADMINISTERING A MEK INHIBITOR IN COMBINATION WITH A PROTEASOME INHIBITOR” (The Jackson Laboratory, priority 2015, published 2018).
# How the values were obtained:
# [1] = tested on: A2058 cells; experiment: Viable A2058 cells by CellTiter Blue with amyloid blockers plus inhibitors; type: cell-based, human; settings: 10 μM ThT pre-incubation 6 hr, then inhibitors 24 hr
# Experimental: (§1) FIGS. 5A-Y show MEK and proteasome inhibition provoke protein aggregation and amyloidogenesis. (A-B) WM115 cells treated with 20 nM AZD6244, 100 nM Bortezomib, or both for 24 hr were stained with Lys48-specific ubiquitin antibodies. Arrowheads mark ubiquitin-positive aggregates. Scale bar: 10 μm. Amounts of aggregates per cell were quantitated using ImageJ (median, n≥100, ANOVA). (C-F) Following transfection with polyQ79 plasmids alone or with both polyQ79 and HSF1^S326D plasmids for one day, HEK293T cells were treated with inhibitors as described in (A-B). Cells were either analyzed for aggregate size or stained with 10 μM ThT. (G) Treated tumor cell lines were stained with 10 μM ThT. Geometric means were used to calculate fold changes in ThT fluorescence intensity and the log 2(FC) values were presented as a heat map. […] Following treatments, AOs were quantitated by ELISA using A11 antibodies (mean±SD, n=3, ANOVA). (I) Intrinsic AOs were detected in human tumor cell lines (mean±SD, n=3, ANOVA). […] Amyloids were quantitated by ELISA (mean±SD, n=3, Student's t-test). […] AF formation was monitored by ThT binding (mean±SD, n=3, ANOVA). […] Amyloids were quantitated (mean±SD, n=3, Student's t-test). […] Viable cells were quantitated by CellTiter® blue (mean±SD, n=6, Student's t-test). […] Viable cells were quantitated (mean±SD, n=6, ANOVA). […]
# This figure is related to FIG. 5. […] (C) Quantitation of protein aggregate size. […]
# [2] = tested on: A2058 cells; experiment: Amyloid quantitation by ELISA in A2058 cells pre-incubated with ThT; type: cell-based, human; settings: 10 μM ThT pre-incubation 6 hr, then inhibitors 24 hr
# Experimental: as §1
# To quantitate amyloid fibrils, detergent-insoluble proteins were extracted. […]
compound,measurement,setting,value
"Cc1ccc2c(c1)sc(-c1ccc(N(C)C)cc1)[n+]2C.[Cl-] [ThT, Thioflavin T]",improvement of cellular growth and survival,[1],50%
same,amyloid induction by inhibitors,[2],suppressed
